Columns and labels:
[1] = Blood morphine, M3G and M6G concentrations in the recovery room (LC-MS/MS) in children undergoing tonsillectomy; details: mean±SD
[2] = system: pupil; assay: Serial quantitative pupillometry after intraoperative morphine in the pediatric study; format: in vivo, children
[3] = system: children undergoing tonsillectomy; assay: Postoperative respiratory depression and its association with ABCB1 genetic variants in children given morphine; details: per added copy of minor allele (G) of ABCB1 rs9282564; 263 children; 95% CI: 2.1-10.8, p=0.0002
[4] = system: pupil; details: used as prophylactic antiemetic; cited from earlier work
[5] = children who did not have respiratory depression with prolonged PACU stay
[6] = children who had respiratory depression and prolonged PACU stay due to respiratory depression

| SMILES | levels in the recovery room [1, 5] [pg/mL] | levels in the recovery room [1, 6] [pg/mL] | pupillary maximum constriction velocity (MCV) vs blood morphine concentration ([2]; FIG. 3, perioperative time points) | pupillary measures (maximum and minimum pupillary sizes, constriction percentage, maximum constriction velocity) ([2]; after intraoperative morphine bolus, under general anesthesia, FIGS. 2A-2D) | PACU pupillary measures compared to the baseline values ([2]; recovery room (PACU) vs preoperative baseline) | increase in odds of a prolonged hospital stay due to postoperative respiratory depression [3] [fold] | interference with quantitative pupillometry responses [4] |
| --- | --- | --- | --- | --- | --- | --- | --- |
| CN1CC[C@]23c4c5ccc(O)c4O[C@H]2[C@@H](O)C=C[C@H]3[C@H]1C5 [morphine] | 8400 ± 7900 | 2250 ± 2300 | decreased as blood morphine concentration increased | incremental reductions in all these pupillary measures | residual depressive effects | 4.7 |  |
| Cc1nccn1CC1CCc2c(c3ccccc3n2C)C1=O (centres unmarked) [ondansetron] |  |  |  |  |  |  | does not interfere with quantitative pupillometry responses |
| CN1CC[C@]23c4c5ccc(O[C@@H]6O[C@H](C(=O)O)[C@@H](O)[C@H](O)[C@H]6O)c4O[C@H]2[C@@H](O)C=C[C@H]3[C@H]1C5 [M3G, Morphine-3 Glucuronide] | 60.7 ± 45.1 | 43.1 ± 37 |  |  |  |  |  |
| CN1CC[C@]23c4c5ccc(O)c4O[C@H]2[C@@H](O[C@@H]2O[C@H](C(=O)O)[C@@H](O)[C@H](O)[C@H]2O)C=C[C@H]3[C@H]1C5 [M6G, Morphine-6 Glucuronide] | 11.7 ± 7.1 | 9.1 ± 3.9 |  |  |  |  |  |

Reference: patent publication US9763572B2, “Quantitative pupillometry as a bedside predictor of postoperative respiratory depression” (Children's Hospital Medical Center, priority 2015, dated 2017)
